Molecular target: CB1 (CNR1) (Homo sapiens, UniProt P21554)
Assay: cAMP CNR1 Hunter cell line antagonist assay (CB1 assay)
Assay type: cell-based
Details: antagonist mode, cAMP CNR1 Hunter cells, EC80 agonist; read-out: CB1 assay, Efficacy (IC50)
Protocol: cAMP CNR1 Hunter cell line (Eurofins DiscoveryX) were expanded from freezer stocks and seeded in a total volume of 20 μL into white walled, 384-well microplates and incubated at 37° C. for the appropriate time prior to testing. For antagonist determination, cell media was aspirated from cells and replaced with 10 μL 1:1 HBSS/Hepes:cAMP XS+Ab reagent. 5 μL of 4× compound was added to the cells and incubated at 37° C. for 30 minutes. 5 μL of 4× EC80 agonist was added to cells and incubated at 37° C. for 30 minutes. After appropriate compound incubation, assay signal was generated through incubation with 20 μL cAMP XS+ED/CL lysis cocktail for one hour followed by incubation with 20 μL cAMP XS+EA reagent for three hours at room temperature. Microplates were read following signal generation with a PerkinElmer Envision™ instrument for chemiluminescent signal detection. Compound activity (IC50) was analyzed using CBIS data analysis suite (ChemInnovation, CA).

Chain of CB1 (CNR1) (P21554 whole entry): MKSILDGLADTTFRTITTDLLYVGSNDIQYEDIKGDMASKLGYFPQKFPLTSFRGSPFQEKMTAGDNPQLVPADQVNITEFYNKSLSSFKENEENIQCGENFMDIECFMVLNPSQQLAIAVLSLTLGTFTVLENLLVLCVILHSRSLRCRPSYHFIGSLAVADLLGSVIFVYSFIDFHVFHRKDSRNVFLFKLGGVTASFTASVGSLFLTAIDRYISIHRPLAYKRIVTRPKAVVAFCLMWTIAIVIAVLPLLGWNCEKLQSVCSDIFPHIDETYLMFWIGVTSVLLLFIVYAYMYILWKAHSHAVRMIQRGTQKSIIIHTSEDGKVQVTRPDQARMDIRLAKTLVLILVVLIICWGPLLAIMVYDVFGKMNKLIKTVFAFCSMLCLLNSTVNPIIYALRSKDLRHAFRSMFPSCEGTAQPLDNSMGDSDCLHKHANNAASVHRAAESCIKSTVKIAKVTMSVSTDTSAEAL

Row | SMILES | IC50 [µM]
1 | O=C1COc2c(cc(Br)cc2S(=O)(=O)NCc2ccc(OC(F)(F)F)cc2)N1 [BC19385] | ≥ 25
2 | COc1ccc(NS(=O)(=O)c2cc3c(cc2Br)NC(=O)CO3)cc1 [BC19137] | < 1
3 | CC1Oc2cc(S(=O)(=O)Nc3cccc(Cl)c3)c(Br)cc2N(C)C1=O (stereo not shown) [BC19905] | ≥ 25
4 | CS(=O)(=O)c1cc2c(c(S(=O)(=O)Nc3cccc(F)c3)c1)OCC(=O)N2 [BC19426] | ≥ 25
5 | O=C1COc2cc(S(=O)(=O)Nc3ccccc3)c(Cl)cc2N1 [BC19161] | < 1
6 | COc1ccc(NS(=O)(=O)c2cc3c(cc2Br)NC(=O)CO3)cc1Cl [BC19163] | < 1
7 | COc1ccc(NS(=O)(=O)c2cc3c(cc2Br)NC(=O)C(CC(C)C)O3)cc1Cl (stereo not shown) [BC19780] | 1 to 25
8 | CC1Oc2cc(S(=O)(=O)NC3CCC(O)CC3)c(Br)cc2NC1=O (stereo not shown) [BC19360] | ≥ 25
9 | CCc1cccc(NS(=O)(=O)c2cc3c(cc2Cl)NC(=O)C(CC)O3)c1 (stereo not shown) [BC19749] | 1 to 25
10 | CC1Oc2cc(S(=O)(=O)Nc3ccccc3)c(Br)cc2N(C)C1=O (stereo not shown) [BC19790] | 1 to 25
11 | CC(=O)N1c2cc(S(=O)(=O)N3CCCC3)ccc2NC(=O)C1C (stereo not shown) [BC19182] | < 1
12 | CCC1Oc2c(cc(Br)cc2S(=O)(=O)NCc2ccc(OC(F)(F)F)cc2)NC1=O (stereo not shown) [BC19375] | 1 to 25
13 | CCC1Oc2cc(S(=O)(=O)Nc3ccc(C(C)C)cc3)c(Cl)cc2NC1=O (stereo not shown) [BC19210] | < 1
14 | CCc1cccc(NS(=O)(=O)c2cc(Br)cc3c2OC(C)C(=O)N3C)c1 (stereo not shown) [BC19900] | ≥ 25
15 | O=C1COc2c(cc(Cl)cc2S(=O)(=O)Nc2ccc(OC(F)(F)F)cc2)N1 [BC19172] | ≥ 25
16 | CS(=O)(=O)c1cc2c(c(S(=O)(=O)Nc3ccc(OC(F)(F)F)cc3)c1)OCC(=O)N2 [BC19422] | ≥ 25
17 | CCC1Oc2cc(S(=O)(=O)Nc3ccc(C)c(Cl)c3)c(Cl)cc2NC1=O (stereo not shown) [BC19745] | 1 to 25
18 | O=C1CCOc2c(cc(Br)cc2S(=O)(=O)Nc2cccc(F)c2)N1 [BC19649] | ≥ 25
19 | CC1Oc2cc(S(=O)(=O)NCc3ccc(C(F)(F)F)cc3)c(Br)cc2NC1=O (stereo not shown) [BC19358] | 1 to 25
20 | CCC1Oc2c(cc(Br)cc2S(=O)(=O)NCc2ccc(F)cc2F)NC1=O (stereo not shown) [BC19374] | ≥ 25
21 | CCc1ccc(NS(=O)(=O)c2cc(Br)cc3c2OCCC(=O)N3)cc1 [BC19686] | 1 to 25
22 | Cc1ccc(NS(=O)(=O)c2cc(Br)cc3c2OC(C)C(=O)N3C)cc1 (stereo not shown) [BC19906] | ≥ 25

Row | SMILES | IC50 [µM]
23 | Cc1ccc(NS(=O)(=O)c2c(C)c(Cl)cc3c2OCC(=O)N3)cc1 [BC19432] | ≥ 25
24 | CC(C)CC1Oc2cc(S(=O)(=O)Nc3ccc(C(C)C)cc3)c(Br)cc2NC1=O (stereo not shown) [BC19766] | ≥ 25
25 | CS(=O)(=O)c1cc2c(c(S(=O)(=O)Nc3ccc(F)cc3Cl)c1)OCC(=O)N2 [BC19428] | ≥ 25
26 | CC(C)CC1Oc2cc(S(=O)(=O)Nc3cccc(Cl)c3)c(Br)cc2NC1=O (stereo not shown) [BC19776] | ≥ 25
27 | CCC1Oc2cc(S(=O)(=O)Nc3ccc(OC)cc3)c(Cl)cc2NC1=O (stereo not shown) [BC19211] | 1 to 25
28 | CC1Oc2cc(S(=O)(=O)Nc3ccc(F)cc3Cl)c(Br)cc2NC1=O (stereo not shown) [BC19285] | 1 to 25
29 | CC(C)CC1Oc2c(cc(Br)cc2S(=O)(=O)Nc2cccc(F)c2)NC1=O (stereo not shown) [BC19773] | 1 to 25
30 | CCOc1ccc(NS(=O)(=O)c2cc3c(cc2Br)NC(=O)CO3)cc1 [BC19135] | 1 to 25
31 | O=C1NCCOc2c1cc(Br)cc2S(=O)(=O)Nc1ccc(F)cc1 [BC19549] | ≥ 25
32 | CCc1cccc(NS(=O)(=O)c2cc(Br)cc3c2OC(C)C(=O)N3)c1 (stereo not shown) [BC19288] | 1 to 25
33 | CCC1Oc2cc(S(=O)(=O)Nc3ccccc3)c(Cl)cc2NC1=O (stereo not shown) [BC19737] | 1 to 25
34 | CC1Oc2c(cc(Cl)cc2S(=O)(=O)Nc2ccc(F)c(F)c2)NC1=O (stereo not shown) [BC19699] | 1 to 25
35 | CCC1Oc2c(cc(Br)cc2S(=O)(=O)Nc2ccc(Cl)cc2)N(C)C1=O (stereo not shown) [BC19929] | ≥ 25
36 | CCCNS(=O)(=O)c1cc2c(cc1Cl)NC(=O)C(CC)O2 (stereo not shown) [BC19214] | ≥ 25
37 | O=C1COc2cc(S(=O)(=O)NCCc3ccc(OC(F)(F)F)cc3)c(Br)cc2N1 [BC19387] | ≥ 25
38 | CCc1ccc(NS(=O)(=O)c2cc3c(cc2Cl)NC(=O)C(C)O3)cc1 (stereo not shown) [BC19702] | ≥ 25
39 | CC(C)CC1Oc2cc(S(=O)(=O)Nc3ccc(F)cc3F)c(Br)cc2NC1=O (stereo not shown) [BC19770] | ≥ 25
40 | Cc1ccc(NS(=O)(=O)c2cc3c(cc2Cl)NC(=O)C(C)O3)cc1Cl (stereo not shown) [BC19708] | ≥ 25
41 | CC1Oc2c(cc(Br)cc2S(=O)(=O)Nc2ccc(F)cc2F)N(C)C1=O (stereo not shown) [BC19798] | ≥ 25
42 | COc1ccc(NS(=O)(=O)c2cc(Br)cc3c2OC(C)C(=O)N3C)cc1Cl (stereo not shown) [BC19909] | ≥ 25
43 | Cc1ccc(NS(=O)(=O)c2cc3c(cc2Cl)NC(=O)C(C)O3)cc1 (stereo not shown) [BC19717] | ≥ 25

From patent publication US20240000806A1, “METHODS AND MATERIALS FOR INHIBITING CB1 ACTIVITY” (University of Pittsburgh - Of the Commonwealth System of …, priority 2020, published 2024)
